Experimental findings from PMC9305971, “Development of [^18F]AmBF3 Tetrazine for Radiolabeling of Peptides: Preclinical Evaluation and PET Imaging of [^18F]AmBF3-PEG7-Tyr^3-Octreotide in an AR42J Pancreatic Carcinoma Model” (Bioconjugate Chemistry, 2022) are described below.

Data set [1] is described as follows: PET/CT imaging of [18F]15. The data set is classed as in vivo, Rj:NMRI-Foxn1^nu/nu mice. To be noted: Rj:NMRI-Foxn1^nu/nu, mouse, subcutaneous AR42J tumor, iv, 0.2 nmol, total radioactivity; for SUV at 25 min: 25 min post injection; for SUV at 1.5 h: 90 min post injection. On the procedure:
(§1) [^18F]6 in 10% ethanol–0.01 M PBS was administered intravenously to male Fox Chase SCID mice (CB.17 SCID) (11.0 ± 0.5 MBq, ∼11 nmol, ∼150 μL, n = 4) and healthy female C57BL/6JRj mice (11.3 ± 0.3 MBq, ∼11 nmol, ∼150 μL, n = 4) under 2% isoflurane anesthesia. The PET/CT image was acquired with Inveon PET/CT for 60 min followed by a 15 min static scan 4 h after injection of the tracer. The images of the dynamic scan were reconstructed to time frames 60 × 10, 10 × 60, 4 × 300, and 3 × 600 s. After the second PET imaging (t = 270 ± 1.9 min post injection, n = 4), the organs were harvested and the radioactivity in each tissue sample was measured with a γ-counter and reported as a percentage of injected dose per gram of tissue (% ID/g). [^18F]15 was formulated in 4% ethanol in 0.01 M PBS and administered intravenously (0.2 nmol, 0.80 ± 0.30 MBq; tracer: 150 μL; tracer + blocking dose: 200 μL) to AR42J tumor-bearing Rj:NMRI-Foxn1^nu/nu mice (n = 4) under 2% isoflurane anesthesia. PET/CT images were acquired with Molecubes PET (β-CUBE) coupled with a CT (X-CUBE) (MOLECUBES NV, Ghent, Belgium) with two mice being imaged at the same time under 2% isoflurane anesthesia. Images were reconstructed to time frames 30 × 10, 15 × 60, 4 × 300, and 5 × 600 s. Quantitative image analysis was done with Carimas software (v 2.10, Turku PET Centre, Turku, Finland). Spherical ROIs were hand-drawn based on anatomical CT data and PET signal for the desired organs. The results are presented as standardized uptake values (SUVs).
(§2) The standardized uptake values (SUVs) were determined from the PET image by drawing regions-of-interest (ROI) around selected organs (heart, liver, kidney, lung, muscle, urinary bladder) with Carimas software (version 2.10, Turku PET Centre, Turku, Finland ) and by measuring the ratio of radioactivity per unit volume of that ROI and normalized to the injected […]
dose. […]

Data set [2] concerns subcutaneous AR42J tumor. Nature of the data set: PET/CT imaging of [18F]15. To be noted: i.v., 0.2 nmol. The data set is classed as in vivo, Rj:NMRI-Foxn1^nu/nu mice. The method, then: as §1, §2
dose. […]

Read-outs that look alike come from different tables or passages of the source.

As for `C[C@@H](O)[C@@H]1NC(=O)[C@H](CCCCN)NC(=O)[C@@H](Cc2c[nH]c3ccccc23)NC(=O)[C@H](Cc2ccc(O)cc2)NC(=O)[C@@H](NC(=O)[C@@H](Cc2ccccc2)NC(=O)CCOCCOCCOCCOCCON=Cc2ccc(C(=O)NCCOCCOCCOCCNC(=O)OC3CCCc4cnnc(-c5ccc(CC(=O)NCC[N+](C)(C)C[B-](F)(F)F)cc5)c4CC3)cc2)CSSC[C@@H](C(=O)N[C@H](CO)[C@@H](C)O)NC1=O` (some centres unmarked) [[^18F]15], the SUV at 25 min in data set [1] (coadministration of octreotide, read-out: tumor SUV, blocked) was determined as 0.76 ± 0.04 SUV; in data set [1] (read-out: tumor SUV, baseline) it was 1.01 ± 0.07 SUV. In addition, the SUV at 1.5 h came to 0.76 ± 0.03 SUV in data set [1] (n = 2, coadministration of octreotide, read-out: tumor SUV, blocking) and 0.82 ± 0.14 SUV in data set [1] (n = 2, read-out: tumor SUV, baseline). In data set [2], the “time of peak radioactivity in tumor (TAC)” value was 20 to 30 min.
